Here are results for four compounds from patent US12370181B2, “Regimens of estrogen receptor antagonists” (Olema Pharmaceuticals, Inc., priority 2019, dated 2025).

The structures appear in SMILES notation.

One data set concerns the target T1, endogenous wild type ER (Homo sapiens, UniProt P03372).
T1 construct: AP activity of endogenous wild type ER in un-transfected Ishikawa cells; endogenous in cells; host or cells: Ishikawa cells (un-transfected)
T1 sequence (P03372 1-595): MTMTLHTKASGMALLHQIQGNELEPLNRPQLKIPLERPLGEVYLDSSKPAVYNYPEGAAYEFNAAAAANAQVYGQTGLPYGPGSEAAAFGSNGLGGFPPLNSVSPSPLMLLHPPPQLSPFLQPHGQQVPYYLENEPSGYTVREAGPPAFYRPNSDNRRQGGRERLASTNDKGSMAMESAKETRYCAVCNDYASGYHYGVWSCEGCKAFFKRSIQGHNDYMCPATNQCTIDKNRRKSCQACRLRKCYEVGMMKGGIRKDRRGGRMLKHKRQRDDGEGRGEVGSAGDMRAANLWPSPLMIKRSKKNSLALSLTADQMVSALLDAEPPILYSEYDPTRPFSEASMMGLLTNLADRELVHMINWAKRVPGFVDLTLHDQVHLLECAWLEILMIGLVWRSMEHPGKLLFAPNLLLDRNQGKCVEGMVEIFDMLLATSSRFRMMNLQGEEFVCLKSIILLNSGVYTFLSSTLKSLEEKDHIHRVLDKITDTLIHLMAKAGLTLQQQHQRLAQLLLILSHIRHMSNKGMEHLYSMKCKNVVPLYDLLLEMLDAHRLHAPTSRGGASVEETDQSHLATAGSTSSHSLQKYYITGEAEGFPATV
The experiment in a line: Alkaline phosphatase (AP) activity of endogenous wild type ER in un-transfected Ishikawa cells, agonist and antagonist mode. It is filed as cell-based. The procedure:
(§1) The present Example describes studies in which certain estrogen receptor constructs were transfected into Ishikawa cells, which are a human endometrial cancer cell line, endogenous alkaline phosphatase is assayed. 15,000 Ishikawa cells per well were plated into a 96-well plate in […] containing 5% stripped FBS. At the time of plating, cells in each well were transiently transfected with 75-100 ng of an estrogen receptor construct (or empty vector, pSG5) using Lipofectamine LTX (ThermoFisher Scientific). Approximately 4 hours later, cells were treated with indicated amount of anti-estrogen (in the absence of E2), or 500 pM E2 (FIG. 9), and media was diluted to 2.5% stripped FBS. Cells were incubated for 3 days, media removed, and plates frozen at −80° C. […] After 40-80 minutes at 40° C., absorbance was read at 405 nm.
AP activity of endogenous wild type ER in un-transfected Ishikawa cells was assayed as described above.

Data set [1] deals with ligand-independent ER mutants. Put plainly: AP activity in Ishikawa cells transiently transfected with ER variants. The following applies: in the absence of E2; 3 days; FIGS. 5A-5F, 8A-8D. It is filed as cell-based, human. The procedure: as §1
The conditions of data set [2]: in vivo, po, 300 mg/kg.

On to `C[C@@H]1Cc2c([nH]c3ccccc23)[C@@H](c2c(F)cc(/C=C/C(=O)O)cc2F)N1CC(C)(C)F` [AZD-9496], for which the “Agonist activity (ER activity, AP)” value at endogenous wild type ER (agonist mode: compound alone, no added estrogen, FIG. 1A) is reported as “increases ER activity in the absence of added estrogen”. The “Antagonist activity (ER activity, AP)” value on endogenous wild type ER (antagonist mode: in the presence of 500 pM 17β-estradiol (E2), FIG. 1B) is on record as “reducing ER activity when estrogen is there”. Moreover, the “Inhibition of activity of ligand-independent ER mutants (AP activity)” value (shortened to “Inhibition”) in data set [1] is recorded as “none of Endoxifen, RAD-1901, ARN-810 (GDC-0810) or AZD-9496 can inhibit activity of the ligand-independent ER variants”.

Take `CCNCCc1ccc(CN(CC)c2cc(OC)ccc2[C@@H]2CCc3cc(O)ccc3C2)cc1` [RAD-1901, Elacestrant]: in data set [1], the “Inhibition” value is “none of Endoxifen, RAD-1901, ARN-810 (GDC-0810) or AZD-9496 can inhibit activity of the ligand-independent ER variants”. `C[C@]12CC[C@@H]3c4ccc(O)cc4C[C@@H](CCCCCCCCC[S+]([O-])CCCC(F)(F)C(F)(F)F)[C@H]3[C@@H]1CC[C@@H]2O` (stereo partly drawn) [Fulvestrant]: the “Blood brain barrier penetration” value in data set [2] is recorded as “unable to penetrate the blood-brain barrier in analogous quantities”.

For `CC/C(=C(/c1ccc(/C=C/C(=O)O)cc1)c1ccc2[nH]ncc2c1)c1ccc(F)cc1Cl` [ARN-810, Brilanestrant], in data set [1], the “Inhibition” value was “none of Endoxifen, RAD-1901, ARN-810 (GDC-0810) or AZD-9496 can inhibit activity of the ligand-independent ER variants”.
